From patent publication US20240091169A1, “POL[…] FOR TREATING INFLAMMATORY DISEASES” (UNIVERSITY OF SOUTH CAROLINA, priority 2022, published 2024)

What was measured:
AOM/DSS-induced CRC = assay: AOM/DSS mouse model of colorectal cancer (CRC); type: in vivo, C57BL/6 mice
[1] = system: BMDMs cultured with C26 CM; assay: Macrophage polarization of BMDMs cultured with C26 CM (flow cytometry); type: cell-based, C57BL/6 mice; settings: 48 hr, PA vs VEH
Procedure: (§1) Bone marrow-derived macrophages (BMDMs) were isolated from healthy 10-14-week-old C57BL/6 male mice. Briefly, mice were euthanized by isoflurane overdose. Femurs were cleared of muscle and debris. The epiphyses of the femurs were cut and placed knee-down and spun down in a 1.5 mL tube. Bone marrow was collected and resuspended in complete DMEM (cDMEM; 10% FBS, 1% penicillin/streptomycin) and passed through two 100 μm strainers. Cells were plated on an untreated 10 cm dish in cDMEM and allowed to incubate at 37° C. for 4 hr. Adherent/mature monocytes and dendritic cells were discarded, while floating/immature monocytes were collected. Cells were subjected to RBC lysis and resuspended in bone marrow maintenance media (BMMM; 20% L929-conditioned media in cDMEM). Cells were then plated on surface-treated 6-well plates at a 250 k cells/well seeding density. On day 3, fresh BMMM was added. On day 5, media was aspirated and fresh BMMM was added. For M2 macrophage polarization experiments, 6-day mature macrophages were given either cDMEM+VEH, M2 media (cDMEM with 10 ng/mL IL-4)+VEH, or M2 media+1 μM PA. Cells were incubated for 24 hr. For C26 colon tumor conditioned media (C26 CM) experiments, 6-day mature macrophages were given either serum-free media (SFM)+VEH, 33% C26-conditioned media (C26 CM)+VEH, or 33% C26 CM+1, 2.5, or 5 μM PA. Cells were incubated for 48 hr. After incubation with these different treatments, cells were washed twice with PBS and incubated with 5 mM EDTA PBS at 4° C. for 20 min. Cells were then gently scraped and transferred into flow tubes, spun at 1600 rpm at 4° C. for 5 min, and washed in PBS before antibody staining. Cells were stained and analyzed for macrophages via flow cytometry as described above with the addition of analyzing macrophage phenotypes. From the CD11b^+CD68^+ macrophage population, macrophage phenotypes were determined based on CD206 and CD11c expression. CD206^−CD11c^− cells were identified as M0 macrophages; CD206^−CD11c^+ as M1 macrophages; CD206^+CD11c^− cells as M2 macrophages; CD206^+CD11c^+ as M1-M2 transitional macrophages. All cells were measured using a FACS Aria II (BD) and analyzed using FlowJo (BD Biosciences). Three independent experiments were carried out for each in vitro assessment.

[2] = system: BMDMs incubated with IL-4 (M2 media); assay: M2 macrophage polarization of BMDMs with IL-4 (flow cytometry); type: cell-based, C57BL/6 mice; settings: 1 μM PA, M2 media (IL-4), 24 hr, vs VEH
Procedure: as §1, with “CD206^−CD11c^− cells were identified as M0 macrophages; CD206^−CD11c^+ as M1 macrophages; CD206^+CD11c^− cells as M2 macrophages; CD206^+CD11c^+ as M1-M2 transitional macrophages.” left out, “Three independent experiments were carried out for each in vitro assessment.” left out

C26 CRC cells = assay: CCK-8 cell viability of C26 CRC cells; type: cell-based; settings: 24 hr, read-out: IC50, anti-proliferative activity against C26 CRC cells
Procedure: BMDMs were isolated as described above. On day 6 of maturation, BMDMs were subjected to 7 concentrations of PA to assess cell death: 0.001, 0.01, 0.1, 1.0, 5.0, 10.0, and 100.0 μM. On day 7 (i.e., 24 hr-post PA treatment), CCK-8 (Dojindo; Cat #CK04) assays were completed per manufacturer's instructions. C26 CRC cells were also subjected to these 7 concentrations of PA for 24 hr to assess cell death using CCK-8. Three independent experiments were carried out.

[3] = females, males, and sexes combined, vs VEH, p≤0.05
[4] = proximal colon (tumors intact) RT-qPCR, vs VEH, p≤0.05
[5] = proximal colon RT-qPCR, vs VEH, p≤0.05
[6] = proximal colon qRT-PCR, vs VEH, p≤0.05
[7] = removed tumors RT-PCR, vs VEH, p≤0.05

C=CC(O)C#CC#CC/C=C\CCCCCCC (stereo in doubt) [PA, 3(R)-(9Z)-heptadeca-1,9-dien-4,6-diyn-3-ol]
survival (AOM/DSS-induced CRC; 2.5 mg/kg p.o. 3x/week, 12 weeks, vs AOM/DSS+VEH, FIG. 1B): appears to improve survival, although non-significant | goblet cells per crypt (AOM/DSS-induced CRC; Alcian Blue, distal colon, no difference between CF and PA): completely rescued | Foxp3 gene expression in tumors (AOM/DSS-induced CRC; RT-qPCR, vs VEH, p≤0.05): decrease | colonoscopy score: focal lesions (AOM/DSS-induced CRC; after 12 weeks, vs VEH): no significant difference | colonoscopy score: perianal findings (AOM/DSS-induced CRC; after 12 weeks, vs VEH, p=0.08): no significant difference | colonoscopy score: inflammation (AOM/DSS-induced CRC; after 12 weeks, vs VEH, p≤0.05): significant reductions | colonoscopy score: intestinal bleeding (AOM/DSS-induced CRC; after 12 weeks, vs VEH, p≤0.05): significant reductions | colonoscopy score: transparency of the colonic wall (AOM/DSS-induced CRC; after 12 weeks, vs VEH, p≤0.05): significant reduction (i.e., improvement) | colonoscopy tumor score (AOM/DSS-induced CRC; after 12 weeks, vs VEH, p≤0.05): significantly reduced | abundance of CD11b+CD68+ macrophages in colonic lamina propria (AOM/DSS-induced CRC; colons with tumors intact, flow cytometry, vs VEH, p≤0.05): significantly decreased | submucosal invasion and destruction of the crypts (H&E) (AOM/DSS-induced CRC; distal colon, vs VEH): did not appear as severe | large tumors (>2 mm) (AOM/DSS-induced CRC; females and sexes combined, vs VEH, p≤0.05): significant reduction | number of medium sized tumors (1-2 mm) (AOM/DSS-induced CRC; [3]): significantly reduced | total number of tumors (AOM/DSS-induced CRC; [3]): significantly reduced | abundance of neutrophils in the colon (AOM/DSS-induced CRC; flow cytometry, n=2-3/group, statistics not performed): appeared to protect against the increased abundance | relative abundance of macrophages in colons following tumor removal (AOM/DSS-induced CRC; flow cytometry, increase with VEH vs CF, p≤0.05): ameliorated | F4/80 immunofluorescence staining in colonic tumors (AOM/DSS-induced CRC; pan macrophage marker, n=3/group): reduction in macrophages | CD68 gene expression (AOM/DSS-induced CRC; [4]): significantly suppressed | MSR-1 gene expression (AOM/DSS-induced CRC; [4]): significantly suppressed | mannose receptor C type 1 (Mrc1) gene expression (AOM/DSS-induced CRC; [4]): significantly suppressed | IL-1β gene expression (AOM/DSS-induced CRC; [5]): significant downregulation | IL-6 gene expression (AOM/DSS-induced CRC; [5]): significant downregulation | IL-10 gene expression (AOM/DSS-induced CRC; [5]): significantly downregulated | IL-13 gene expression (AOM/DSS-induced CRC; [5]): significantly downregulated | TGF-β1 gene expression (AOM/DSS-induced CRC; [5]): significantly downregulated | neutrophil marker Ly6g gene expression (AOM/DSS-induced CRC; [5]): significantly downregulated | Muc1 gene expression (AOM/DSS-induced CRC; proximal colon qRT-PCR, vs VEH, p=0.08): slightly but non-significantly reduced | Muc2 gene expression (AOM/DSS-induced CRC; [6]): significantly increased | occludin (OCLN) gene expression (AOM/DSS-induced CRC; [6]): upregulated | tight junction protein 3 (TJP3) gene expression (AOM/DSS-induced CRC; [6]): upregulated | gene expression of pro-apoptotic marker Bax in colonic tumors (AOM/DSS-induced CRC; qRT-PCR, vs VEH, p=0.09): increased, although non-significant | TGF-01 gene expression in tumors (AOM/DSS-induced CRC; removed tumors RT-PCR, vs VEH, p=0.08): suppressed | CD68 gene expression in tumors (AOM/DSS-induced CRC; [7]): significantly suppressed | IL-6 gene expression in tumors (AOM/DSS-induced CRC; [7]): suppressed | IL-13 gene expression in tumors (AOM/DSS-induced CRC; [7]): suppressed | small tumors (≤1 mm) (AOM/DSS-induced CRC; sexes combined, reduction observed, p=0.08): did not reach statistical significance | colonic TCRβ+FoxP3+ T-regs (AOM/DSS-induced CRC; tumor-removed colons, flow cytometry, between VEH and PA): no difference | percentage of Ki67 positive cells in colonic tumors (AOM/DSS-induced CRC; vs VEH, p≤0.05): significant decreased | percentage of apoptotic cells (TUNEL) in colonic tumors (AOM/DSS-induced CRC; vs VEH, p≤0.05): significant increase | overall symptom score (bodyweight loss, stool consistency, rectal bleeding) (AOM/DSS-induced CRC; weeks 1-3, 5-7 and 10-12, vs VEH, FIG. 1C): significantly suppressed | circulating lymphocytes (AOM/DSS-induced CRC; whole blood, end of study, PA vs VEH): no difference between VEH- and PA-treated groups | total WBCs (AOM/DSS-induced CRC; whole blood, end of study, across groups): no change | circulating monocytes (AOM/DSS-induced CRC; whole blood, end of study, increase with VEH vs CF, p≤0.05): rescued | neutrophil to lymphocyte ratio (NLR) (AOM/DSS-induced CRC; whole blood, end of study, p≤0.05): decrease | circulating neutrophils (AOM/DSS-induced CRC; whole blood, end of study, vs VEH, p≤0.05): ameliorate the significant increase | relative abundance of M0 macrophages [1]: No significant differences | relative abundance of M1-M2 macrophages [1]: No significant differences | relative abundance of M1 macrophages [1]: No significant differences | relative abundance of pro-tumoral M2 macrophages ([1]; p≤0.05): significantly reduced | naïve M0 macrophages ([2]; p=0.06): increased | M2 macrophages ([2]; p=0.08): non-significantly reduced | transitional M1-M2 macrophages ([2]; p=0.12): non-significantly reduced | IC50 (C26 CRC cells): 1000 nM
